According to ChEMBL document CHEMBL1201862, “PubChem BioAssay data set” (2004):
Activity calls are given as the source filed them.

Legend:
[1] = molecular target: T1, Tyrosine-protein phosphatase non-receptor type 7 (Homo sapiens, UniProt P35236); type: functional
T1 sequence (P35236 whole entry): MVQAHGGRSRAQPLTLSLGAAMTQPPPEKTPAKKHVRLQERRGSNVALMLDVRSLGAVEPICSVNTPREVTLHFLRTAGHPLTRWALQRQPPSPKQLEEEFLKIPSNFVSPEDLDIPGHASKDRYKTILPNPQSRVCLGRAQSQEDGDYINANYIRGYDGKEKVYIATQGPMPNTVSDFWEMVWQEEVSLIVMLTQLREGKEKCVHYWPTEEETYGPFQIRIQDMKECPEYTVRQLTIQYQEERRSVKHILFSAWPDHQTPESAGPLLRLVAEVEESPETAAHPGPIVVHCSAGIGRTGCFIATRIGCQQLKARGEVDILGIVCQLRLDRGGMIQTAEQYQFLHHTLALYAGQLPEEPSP

[2] = molecular target: T2, Tyrosine-protein phosphatase non-receptor type 22 (Homo sapiens, UniProt Q9Y2R2); type: functional
T2 sequence (Q9Y2R2 whole entry): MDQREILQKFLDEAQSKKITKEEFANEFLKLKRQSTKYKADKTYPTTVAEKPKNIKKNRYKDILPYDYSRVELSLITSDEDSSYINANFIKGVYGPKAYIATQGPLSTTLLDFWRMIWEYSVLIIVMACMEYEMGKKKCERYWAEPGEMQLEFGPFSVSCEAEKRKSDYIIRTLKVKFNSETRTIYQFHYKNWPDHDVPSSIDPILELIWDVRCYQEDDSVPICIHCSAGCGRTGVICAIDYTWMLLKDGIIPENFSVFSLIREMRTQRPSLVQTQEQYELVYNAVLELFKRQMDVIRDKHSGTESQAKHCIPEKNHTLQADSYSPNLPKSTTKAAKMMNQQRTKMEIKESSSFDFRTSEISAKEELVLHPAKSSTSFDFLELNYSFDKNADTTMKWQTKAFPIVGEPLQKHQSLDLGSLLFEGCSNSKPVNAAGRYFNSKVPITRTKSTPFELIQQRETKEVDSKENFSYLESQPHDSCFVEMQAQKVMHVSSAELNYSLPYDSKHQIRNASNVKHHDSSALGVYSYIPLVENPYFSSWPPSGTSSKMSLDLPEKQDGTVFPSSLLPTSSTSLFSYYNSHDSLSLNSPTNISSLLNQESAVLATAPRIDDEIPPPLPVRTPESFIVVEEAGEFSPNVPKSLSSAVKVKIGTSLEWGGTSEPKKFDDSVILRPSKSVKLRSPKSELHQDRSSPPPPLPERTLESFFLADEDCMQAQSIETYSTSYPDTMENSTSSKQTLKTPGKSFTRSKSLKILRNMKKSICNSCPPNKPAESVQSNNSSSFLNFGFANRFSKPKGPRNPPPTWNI

[3] = molecular target: Intestinal-type alkaline phosphatase (Mus musculus, UniProt P24822); experiment: PubChem AID 488785; type: functional
Sequence of Intestinal-type alkaline phosphatase (Mus musculus, UniProt P24822) (P24822 whole entry): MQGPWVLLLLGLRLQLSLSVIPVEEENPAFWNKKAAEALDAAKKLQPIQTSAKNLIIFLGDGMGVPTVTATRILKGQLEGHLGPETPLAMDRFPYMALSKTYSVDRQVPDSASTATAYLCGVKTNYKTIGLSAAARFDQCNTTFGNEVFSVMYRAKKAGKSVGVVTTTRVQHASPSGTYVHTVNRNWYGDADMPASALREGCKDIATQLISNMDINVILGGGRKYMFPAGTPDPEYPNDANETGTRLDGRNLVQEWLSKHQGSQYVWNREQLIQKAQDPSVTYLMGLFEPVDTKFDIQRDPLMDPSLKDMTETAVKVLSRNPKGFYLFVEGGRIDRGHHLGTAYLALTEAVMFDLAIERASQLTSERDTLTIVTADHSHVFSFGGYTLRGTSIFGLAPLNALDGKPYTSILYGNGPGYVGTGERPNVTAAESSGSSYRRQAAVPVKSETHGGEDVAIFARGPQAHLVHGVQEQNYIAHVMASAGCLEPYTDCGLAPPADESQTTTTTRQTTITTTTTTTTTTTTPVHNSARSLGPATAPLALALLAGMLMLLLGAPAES

[4] = molecular target: T2, Tyrosine-protein phosphatase non-receptor type 22; type: functional; remark: listed apart in the source
[5] = molecular target: T3, Alkaline phosphatase, tissue-nonspecific isozyme (Homo sapiens, UniProt P05186); experiment: TNAP enzyme inhibition by screening hits, dose response, selectivity assay for mouse IAP inhibitor project, biochemical, human TNAP, uHTS hits (AID 488906); type: functional
T3 sequence (P05186 whole entry): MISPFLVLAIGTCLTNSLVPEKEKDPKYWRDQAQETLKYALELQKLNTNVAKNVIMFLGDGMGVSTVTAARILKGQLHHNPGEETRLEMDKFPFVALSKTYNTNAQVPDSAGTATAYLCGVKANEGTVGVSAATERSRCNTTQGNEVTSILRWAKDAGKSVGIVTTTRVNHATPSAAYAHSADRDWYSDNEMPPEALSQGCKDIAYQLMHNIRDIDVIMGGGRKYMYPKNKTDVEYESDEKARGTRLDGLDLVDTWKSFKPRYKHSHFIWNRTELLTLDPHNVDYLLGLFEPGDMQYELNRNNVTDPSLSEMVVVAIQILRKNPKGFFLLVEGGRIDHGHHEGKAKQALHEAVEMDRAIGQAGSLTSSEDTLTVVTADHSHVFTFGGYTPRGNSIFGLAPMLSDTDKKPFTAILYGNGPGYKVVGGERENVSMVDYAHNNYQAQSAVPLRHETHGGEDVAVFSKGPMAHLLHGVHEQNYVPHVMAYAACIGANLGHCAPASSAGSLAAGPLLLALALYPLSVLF

[6] = molecular target: Intestinal-type alkaline phosphatase (Homo sapiens, UniProt P09923); experiment: inhibition of human intestinal alkaline phosphatase – biochemical, dose response (AID 488876); type: functional
Sequence of Intestinal-type alkaline phosphatase (Homo sapiens, UniProt P09923) (P09923 whole entry): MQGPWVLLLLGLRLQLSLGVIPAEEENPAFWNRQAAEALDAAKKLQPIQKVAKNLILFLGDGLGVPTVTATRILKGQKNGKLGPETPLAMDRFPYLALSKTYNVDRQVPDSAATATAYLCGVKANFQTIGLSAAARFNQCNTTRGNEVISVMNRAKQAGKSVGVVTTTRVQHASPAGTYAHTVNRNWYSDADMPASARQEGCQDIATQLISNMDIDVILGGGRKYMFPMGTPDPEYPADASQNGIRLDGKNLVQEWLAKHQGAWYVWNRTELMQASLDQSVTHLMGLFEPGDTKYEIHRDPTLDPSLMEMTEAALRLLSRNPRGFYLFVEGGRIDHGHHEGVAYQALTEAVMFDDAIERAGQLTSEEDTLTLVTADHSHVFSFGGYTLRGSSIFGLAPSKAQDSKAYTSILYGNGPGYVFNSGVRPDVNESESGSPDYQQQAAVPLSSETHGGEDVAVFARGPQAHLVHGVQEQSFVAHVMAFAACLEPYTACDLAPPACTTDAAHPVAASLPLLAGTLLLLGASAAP

[7] = Luminescence Cell-Based Dose Retest to Confirm Inhibitors of Cancer Stem Cells. [Related pubchem assays (depositor defined):AID2717, AID2721]; type: functional; conditions: Homo sapiens
[8] = cytotoxicity in HMLE control line with eGFP shRNA, dose response, counter-screen for HMLE_sh_ECad selective toxicity project, cell-based, HMLE_sh_eGFP, luminescence (AID 463074); type: functional, Homo sapiens;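 further: HMLE human mammary epithelial cells expressing control shRNA against eGFP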
Cytochrome P450 2D6 = Cytochrome P450 2D6 (Homo sapiens, UniProt P10635);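 further: CYP2D6 member of a cytochrome P450 panel assay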
SUMO-activating enzyme [9] = molecular target: T4, SUMO-activating enzyme (Homo sapiens, UniProt Q9UBT2); experiment: SUMOylation inhibitor hit validation, confirmation, SUMOylation inhibitor project, biochemical, AlphaScreen (AID 2018); type: functional
T4 sequence (Q9UBE0 whole entry): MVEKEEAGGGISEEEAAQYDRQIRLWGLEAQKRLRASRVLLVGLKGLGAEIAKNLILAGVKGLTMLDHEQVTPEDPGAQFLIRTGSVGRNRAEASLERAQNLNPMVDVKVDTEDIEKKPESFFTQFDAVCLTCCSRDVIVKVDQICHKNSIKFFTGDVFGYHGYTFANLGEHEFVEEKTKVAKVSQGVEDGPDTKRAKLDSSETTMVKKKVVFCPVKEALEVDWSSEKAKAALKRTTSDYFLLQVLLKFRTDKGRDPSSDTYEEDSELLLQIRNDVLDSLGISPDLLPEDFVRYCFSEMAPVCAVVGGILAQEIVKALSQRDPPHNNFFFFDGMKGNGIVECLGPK
T4 sequence (Q9UBT2 whole entry): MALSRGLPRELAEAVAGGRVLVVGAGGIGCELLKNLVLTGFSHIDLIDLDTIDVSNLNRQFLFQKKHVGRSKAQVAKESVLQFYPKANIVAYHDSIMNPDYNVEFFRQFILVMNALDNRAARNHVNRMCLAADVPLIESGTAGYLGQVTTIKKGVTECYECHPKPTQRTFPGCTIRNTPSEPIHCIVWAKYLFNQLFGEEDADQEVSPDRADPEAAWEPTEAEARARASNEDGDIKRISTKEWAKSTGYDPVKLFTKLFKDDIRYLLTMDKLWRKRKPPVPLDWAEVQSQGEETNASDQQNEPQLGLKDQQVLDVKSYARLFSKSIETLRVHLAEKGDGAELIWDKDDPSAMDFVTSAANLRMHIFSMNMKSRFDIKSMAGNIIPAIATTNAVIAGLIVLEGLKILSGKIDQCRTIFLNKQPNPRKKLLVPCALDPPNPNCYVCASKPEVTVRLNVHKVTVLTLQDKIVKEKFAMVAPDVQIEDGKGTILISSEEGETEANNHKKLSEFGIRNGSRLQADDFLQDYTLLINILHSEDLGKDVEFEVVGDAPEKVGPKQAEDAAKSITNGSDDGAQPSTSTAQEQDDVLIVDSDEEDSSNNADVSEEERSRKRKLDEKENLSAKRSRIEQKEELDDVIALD

SUMO-activating enzyme [10] = molecular target: T4, SUMO-activating enzyme; experiment: inhibitors of in vitro SUMOylation cascade, primary screen, biochemical, HTRF, uHTS (AID 2006); type: protein-complex assay
[11] = growth suppression of PTEN-null colon cells, dose response, cell-based, HCT116 PTEN knockout (AID 1047); type: functional;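 further: HCT116 colon tumor cells with PTEN knocked out; cells exposed to compound for 60 hours before readout; potency for loss of cell viability measured by luminescence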
[12] = growth suppression of beta-catenin-knockout colon cells, dose response, cell-based, HCT116, human colon tumor (AID 1045); type: functional;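 further: HCT116 colon tumor cells with beta catenin knocked out; cells exposed to compound for 60 hours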
[13] = molecular target: Induced myeloid leukemia cell differentiation protein Mcl-1 (Homo sapiens, UniProt Q07820); type: functional
SUMO E1/E2 = SUMO E1/E2 (Homo sapiens, UniProt P63279+Q9UBE0+Q9UBT2); experiment: SAR analysis of SUMOylation using HTRF in an in-Vitro dose response assay. [Related pubchem assays (depositor defined):AID2006, AID2011, AID2018, AID2069, AID2658]; type: functional
INS1 = experiment: beta cell apoptosis inhibitors, cytokine rescue, dose response, luminescence, retest (AID 449756); type: functional, cell-based; conditions: Rattus norvegicus;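 further: cell death triggered by IL-1 beta plus TNF-alpha plus IFN-gamma mixture; protective hits raise ATP signal compared with cytokine alone wells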
Exodeoxyribonuclease V = Exodeoxyribonuclease V (Escherichia coli (strain K12), UniProt P04993+P07648+P08394); experiment: E. coli RecBCD inhibitors, dose response, counter-screen for AddAB inhibitor project, absorbance, V66 E. coli, mutant T4 phage (AID 492957); type: functional, cell-based, Escherichia coli str. K-12 substr. MG1655
Sequence of Exodeoxyribonuclease V (P04993 whole entry): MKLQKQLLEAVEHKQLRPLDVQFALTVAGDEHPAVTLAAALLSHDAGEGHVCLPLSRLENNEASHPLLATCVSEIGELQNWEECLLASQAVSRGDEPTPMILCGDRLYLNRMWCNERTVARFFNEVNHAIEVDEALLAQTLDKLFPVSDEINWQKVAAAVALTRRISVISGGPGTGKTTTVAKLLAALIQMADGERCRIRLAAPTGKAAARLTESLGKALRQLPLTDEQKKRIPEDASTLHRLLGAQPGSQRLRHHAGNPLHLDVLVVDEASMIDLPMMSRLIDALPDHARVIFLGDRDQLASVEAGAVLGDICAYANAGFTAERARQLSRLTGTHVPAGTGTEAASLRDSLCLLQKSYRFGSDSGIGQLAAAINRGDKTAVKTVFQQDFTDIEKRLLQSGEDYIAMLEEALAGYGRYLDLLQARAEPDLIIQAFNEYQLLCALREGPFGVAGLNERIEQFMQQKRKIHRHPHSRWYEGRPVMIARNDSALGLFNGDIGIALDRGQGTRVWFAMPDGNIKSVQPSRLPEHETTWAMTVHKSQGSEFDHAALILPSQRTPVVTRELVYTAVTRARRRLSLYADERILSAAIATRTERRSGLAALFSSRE
Sequence of Exodeoxyribonuclease V (P07648 whole entry): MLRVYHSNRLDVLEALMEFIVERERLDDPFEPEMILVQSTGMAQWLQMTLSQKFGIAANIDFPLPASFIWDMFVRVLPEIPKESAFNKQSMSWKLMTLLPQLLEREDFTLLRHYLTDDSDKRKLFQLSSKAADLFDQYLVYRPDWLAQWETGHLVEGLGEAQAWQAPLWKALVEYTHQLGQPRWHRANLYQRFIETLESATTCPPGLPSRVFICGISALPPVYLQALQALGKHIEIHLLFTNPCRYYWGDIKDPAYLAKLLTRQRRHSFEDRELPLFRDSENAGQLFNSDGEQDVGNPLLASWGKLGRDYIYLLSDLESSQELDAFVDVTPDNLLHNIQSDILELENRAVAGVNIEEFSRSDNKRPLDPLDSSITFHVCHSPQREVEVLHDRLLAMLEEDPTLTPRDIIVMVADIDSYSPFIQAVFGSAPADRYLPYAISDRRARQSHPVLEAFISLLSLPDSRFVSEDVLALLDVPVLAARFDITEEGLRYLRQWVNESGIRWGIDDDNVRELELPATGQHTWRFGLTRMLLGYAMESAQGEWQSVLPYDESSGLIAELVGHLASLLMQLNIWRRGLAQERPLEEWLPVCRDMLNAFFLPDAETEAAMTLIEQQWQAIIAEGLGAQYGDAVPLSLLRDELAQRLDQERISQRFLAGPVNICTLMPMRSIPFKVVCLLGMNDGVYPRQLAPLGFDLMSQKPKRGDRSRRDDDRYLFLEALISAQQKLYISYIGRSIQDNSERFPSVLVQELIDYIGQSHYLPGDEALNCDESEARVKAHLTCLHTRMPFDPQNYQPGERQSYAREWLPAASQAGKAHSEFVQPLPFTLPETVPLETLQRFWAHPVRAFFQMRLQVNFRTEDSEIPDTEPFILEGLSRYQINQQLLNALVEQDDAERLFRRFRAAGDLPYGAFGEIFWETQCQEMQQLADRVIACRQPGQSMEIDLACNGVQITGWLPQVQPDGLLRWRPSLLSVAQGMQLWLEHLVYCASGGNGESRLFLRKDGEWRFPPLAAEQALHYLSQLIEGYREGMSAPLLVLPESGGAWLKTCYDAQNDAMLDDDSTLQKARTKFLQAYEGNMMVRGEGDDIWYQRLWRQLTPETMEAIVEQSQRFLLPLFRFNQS
Sequence of Exodeoxyribonuclease V (P08394 whole entry): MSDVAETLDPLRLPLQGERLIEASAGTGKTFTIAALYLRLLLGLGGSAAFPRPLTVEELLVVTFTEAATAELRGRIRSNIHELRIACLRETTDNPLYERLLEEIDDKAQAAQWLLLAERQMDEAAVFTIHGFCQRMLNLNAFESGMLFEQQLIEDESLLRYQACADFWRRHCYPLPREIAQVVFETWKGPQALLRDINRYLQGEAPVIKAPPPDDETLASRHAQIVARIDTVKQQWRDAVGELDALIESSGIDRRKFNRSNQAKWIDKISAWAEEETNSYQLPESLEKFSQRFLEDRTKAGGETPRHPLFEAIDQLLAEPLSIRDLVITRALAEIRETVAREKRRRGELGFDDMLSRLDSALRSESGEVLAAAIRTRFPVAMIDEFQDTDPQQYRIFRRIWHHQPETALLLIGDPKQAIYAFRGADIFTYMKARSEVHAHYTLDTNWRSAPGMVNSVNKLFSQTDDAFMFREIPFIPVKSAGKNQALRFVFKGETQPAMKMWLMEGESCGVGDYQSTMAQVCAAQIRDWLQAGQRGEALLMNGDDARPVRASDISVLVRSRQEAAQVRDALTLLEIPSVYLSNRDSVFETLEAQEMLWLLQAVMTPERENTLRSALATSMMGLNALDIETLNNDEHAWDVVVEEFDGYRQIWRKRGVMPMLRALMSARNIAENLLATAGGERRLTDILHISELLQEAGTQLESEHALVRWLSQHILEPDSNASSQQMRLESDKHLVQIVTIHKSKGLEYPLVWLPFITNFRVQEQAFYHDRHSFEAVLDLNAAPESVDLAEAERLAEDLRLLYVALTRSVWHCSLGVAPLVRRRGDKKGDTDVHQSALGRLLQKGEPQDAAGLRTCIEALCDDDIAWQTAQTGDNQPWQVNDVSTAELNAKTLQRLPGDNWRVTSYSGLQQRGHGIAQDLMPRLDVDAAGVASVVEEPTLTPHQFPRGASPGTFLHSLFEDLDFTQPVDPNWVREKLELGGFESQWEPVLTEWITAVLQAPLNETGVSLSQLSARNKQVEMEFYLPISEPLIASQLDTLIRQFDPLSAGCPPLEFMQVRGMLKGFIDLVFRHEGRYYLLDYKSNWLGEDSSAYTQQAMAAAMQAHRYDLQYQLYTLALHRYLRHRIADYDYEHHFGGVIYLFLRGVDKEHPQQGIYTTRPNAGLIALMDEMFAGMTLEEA

[14] = Counterscreen for AddAB inhibitors: absorbance-based bacterial cell-based high throughput dose response assay for inhibitors of bacterial viability. [Related pubchem assays (depositor defined):AID435030, AID449728, AID449731, AID488942, AID488955, AID488956]; type: functional

S=C(NCc1ccc(Cl)cc1Cl)NC1CCCCC1
active: IC50 [3] 6.56 µM | IC50 [5] 87.6 µM | IC50 [6] 29.2 µM
inactive: IC50 [1] > 79.4 µM | IC50 [2] > 79.4 µM | IC50 [4] > 79.4 µM

CC1CCN(C2=NN3C(=N)/C(=C\c4ccc(OC(=O)c5ccco5)cc4)C(=O)N=C3S2)CC1
active: AC50 [7] 14.6 µM | AC50 [8] 25.4 µM

Cl.N=C(N)N/N=C\c1cnn(C(=N)N)c1
inconclusive: AC50 (Cytochrome P450 2D6)

Cc1ccc(NC(=O)Cn2c(O)c(N=NC(=O)c3cc4ccccc4cc3O)c3ccccc32)cc1
active: IC50 (SUMO-activating enzyme [9]) 17 µM | IC50 (SUMO-activating enzyme [10]) 10.7 µM | EC50 [11] 5.12 µM | EC50 [12] 5.17 µM | IC50 [13] 2.57 µM | IC50 (SUMO E1/E2) 51.5 µM | AC50 [7] 4.23 µM | AC50 (INS1) 7.77 µM

O=C(COC(=O)COc1ccccc1)Nc1ncc([N+](=O)[O-])s1
inactive: IC50 (Exodeoxyribonuclease V) > 119 µM | IC50 [14] > 39.5 µM | IC50 [6] > 100 µM
active: IC50 [3] 0.674 µM | IC50 [5] 4.72 µM
